Measured values reported in patent US20090035385A1, “COMPOSITIONS INCLUDING IRON” (DRUGTECH CORPORATION, priority 2004, published 2009).
Like-named read-outs stand apart in the source and are kept apart here.

Experiments:
[1] = system: gastrointestinal iron absorption; conditions: cited from earlier work
[2] = daily administration, 50 mg of elemental iron; based on generally accepted iron absorption rates
[3] = intravenous administration of the promoter
[4] = oral administration of the promoter

Row | Compound | effect on gastrointestinal iron absorption [1, 3] | effect on gastrointestinal iron absorption [1, 4] | time required to supply 450 mg of iron for RBC regeneration and 300 mg of iron to replenish iron stores [2]
1 | O=C1O[C@H]([C@@H](O)CO)C(O)=C1O [Ascorbic acid, ascorbic acid] | not increased | enhance gastrointestinal iron absorption | 
2 | O=C(O)CCC(=O)O [Succinic acid, succinic acid] | enhance gastrointestinal iron absorption | enhance gastrointestinal iron absorption | 
3 | ferrous sulfate |  |  | approximately 9 months
